The text below walks through data of patent publication US11098010B2 (priority 2017, dated 2021).

Molecules are shown by their SMILES. pEC50: −log10 of the molar value. Read-outs that look alike come from different tables or passages of the source.

For this assay, the system named is HBV rcDNA in HepDE19 cells. The assay can be described thus: HepDE19 assay with bDNA quantitation of HBV rcDNA. Format: cell-based, hepatitis B virus (HBV). The procedure:
HepDE19 Assay with bDNA Quantitation of HBV rcDNA:
HepDE19 cell culture system is a HepG2 (human hepatocarcinoma) derived cell line that supports HBV DNA replication and cccDNA formation in a tetracycline (Tet)-regulated manner and produces HBV rcDNA and a detectable reporter molecule dependent on the production and maintenance of cccDNA (Guo, et al., 2007, J. Virol. 81:12472-12484).
HepDE19 (50,000 cells/well) were plated in 96-well collagen-coated tissue-culture treated microtiter plates in DMEM/F12 medium supplemented with 10% fetal bovine serum, 1% penicillin-streptomycin and 1 μg/mL tetracycline and incubated in a humidified incubator at 37° C. and 5% CO2 overnight. Next day, the cells were switched to fresh medium without tetracycline and incubated for 4 hours at 37° C. and 5% CO2. The cells were treated with fresh Tet-free medium with compounds at concentrations starting at 25 μM and a serial, ½ log, 8-point, titration series in duplicate. The final DMSO concentration in the assay was 0.5%. The plates were incubated for 7 days in a humidified incubator at 37° C. and 5% CO2. Following a 7 day-incubation, the level of rcDNA present in the inhibitor-treated wells was measured using a Quantigene 2.0 bDNA assay kit (Affymetrix, Santa Clara, Calif.) with HBV specific custom probe set and manufacturers instructions. Concurrently, the effect of compounds on cell viability was assessed using replicate plates, plated at a density of 5,000 cells/well and incubated for 4 days, to determine the ATP content as a measure of cell viability using the cell-titer glo reagent (CTG; Promega Corporation, Madison, Wis.) as per manufacturer's instructions. The plates were read using a Victor luminescence plate reader (PerkinElmer Model 1420 Multilabel counter) and the relative luminescence units (RLU) data generated from each well was calculated as % inhibition of the untreated control wells and analyzed using XL-Fit module in Microsoft Excel to determine EC50 and EC90 (bDNA) and CC50 (CTG) values using a 4-parameter curve fitting algorithm.
Representative compounds of the invention were tested for their abilities to inhibit formation of relaxed circular DNA (rcDNA) in a HepDE19 assay, as described elsewhere herein.

[1] abbreviates: HepDE19 cells, inhibition of rcDNA formation, 7 day incubation, top concentration 25 μM; read-out: DE-19 bDNA EC50.
[2] abbreviates: Hepatitis B virus, HepDE19, 168 h, HepDE19 cells, inhibition of rcDNA formation, 7 day incubation, top concentration 25 μM; read-out: DE-19 bDNA EC50.
Where [3] appears, read: Hepatitis B virus, HepDE19, 168 h, read-out: DE-19 bDNA EC50 (μM), HepDE19 cells, inhibition of rcDNA formation, 7 day incubation, top concentration 25 μM.

One may read the pEC50 as −log10 of the EC50, conventionally taken in molar units. Regarding `O=C(NC1CSc2c(C(=O)Nc3ccc(F)c(F)c3)cccc21)OCc1ccccn1` (stereo not drawn) [Compound 27, O-pyridin-2-ylmethyl, N-(7-((3,4-difluorophenyl)carbamoyl)-2,3-dihydrobenzo[b]thiophen-3-yl) carbamate], the pEC50 under setting [1] was 5.85.
`O=C(NC1CSc2c(C(=O)Nc3ccc(F)c(Cl)c3)cccc21)OCc1ccccn1` (stereo not drawn) [Compound 28, O-pyridin-2-ylmethyl, N-(7-((3-chloro-4-fluorophenyl)carbamoyl)-2,3-dihydrobenzo[b]thiophen-3-yl) carbamate]: the pEC50 under setting [1] is 6.12.
As to `COC(=O)NC1CSc2c(C(=O)Nc3ccc(F)c(Cl)c3)cccc21` (stereo not drawn) [Compound 29, O-methyl, N-(7-((3-chloro-4-fluorophenyl)carbamoyl)-2,3-dihydrobenzo[b]thiophen-3-yl) carbamate], under setting [1], the pEC50 is 5.80.
Take `O=C(N[C@H]1CCc2c(C(=O)Nc3ccc(F)c(Cl)c3)ccc(F)c21)OCc1ccccn1` [Compound 32, O-Pyridin-2-ylmethyl, N—(S)-(4-((3-chloro-4-fluorophenyl)carbamoyl)-7-fluoro-2,3-dihydro-1H-inden-1-yl) carbamate]: the pEC50 under setting [2] is 6.96.
For `O=C(NC1CSc2c(C(=O)Nc3ccc(F)c(Cl)c3)cccc21)OCc1ccccn1` (stereo not drawn) [Compound 35, O-Pyridin-2-ylmethyl, N-(7-((3-chloro-4-fluorophenyl)carbamoyl)-2,3-dihydrobenzo[b]thiophen-3-yl) carbamate], under setting [1], the negative logarithm of the EC50 (pEC50) was 6.11.
On the same count and under the same terms, with `O=C(NC1CSc2c(C(=O)Nc3ccc(F)c(Cl)c3)cccc21)OCc1ccccn1` (stereo not drawn) [Compound 36, O-Pyridin-2-ylmethyl, N-(7-((3-chloro-4-fluorophenyl)carbamoyl)-2,3-dihydrobenzo[b]thiophen-3-yl) carbamate] the figure was under 4.60.
`COC(=O)NC1CSc2c(C(=O)Nc3ccc(F)c(Cl)c3)cccc21` (stereo not drawn) [Compound 37, O-Methyl, N-(7-((3-chloro-4-fluorophenyl)carbamoyl)-2,3-dihydrobenzo[b]thiophen-3-yl) carbamate]: the EC50 under setting [3] was determined as 0.95 µM.
As for `CN1C(=O)CC[C@H]1COC(=O)N[C@H]1CCc2c(C(=O)Nc3ccc(F)c(Cl)c3)ccc(F)c21` [Compound 39], the pEC50 under setting [2] was 6.22.
On to `Cc1cc(NC(=O)c2ccc(F)c3c2CC[C@@H]3NC(=O)OCc2ccccn2)ccc1F` [Compound 40, O-Pyridin-2-ylmethyl, N—(S)-(7-fluoro-4-((4-fluoro-3-methylphenyl)carbamoyl)-2,3-dihydro-1H-inden-1-yl) carbamate], for which the pEC50 under setting [2] is 6.21.
`O=C(N[C@H]1CCc2c(C(=O)Nc3ccc(F)c(Cl)c3)ccc(F)c21)OCc1cn2ccccc2n1` [Compound 41, O-Imidazo[1,2-a]pyridin-2-ylmethyl, N—(S)-(4-((3-chloro-4-fluorophenyl)carbamoyl)-7-fluoro-2,3-dihydro-1H-inden-1-yl) carbamate]: the pEC50 under setting [2] is 6.80.
Consider `O=C(N[C@H]1CCc2c(C(=O)Nc3ccc(F)c(Cl)c3)ccc(F)c21)OCc1cccc(N2CCOCC2)n1` [Compound 42, O-(6-Morpholinopyridin-2-yl)methyl, N—(S)-(4-((3-chloro-4-fluorophenyl)carbamoyl)-7-fluoro-2,3-dihydro-1H-inden-1-yl) carbamate], for which the EC50 under setting [3] turned out to be 0.27 µM.
On the same count and under the same terms, the value for `CN1C(=O)CC[C@@H]1COC(=O)N[C@H]1CCc2c(C(=O)Nc3ccc(F)c(Cl)c3)ccc(F)c21` [Compound 43] was 0.54 µM; that for `COc1cccc(COC(=O)N[C@H]2CCc3c(C(=O)Nc4ccc(F)c(Cl)c4)ccc(F)c32)n1` [Compound 44, O-(6-Methoxypyridin-2-yl)methyl, N—(S)-(4-((3-chloro-4-fluorophenyl)carbamoyl)-7-fluoro-2,3-dihydro-1H-inden-1-yl) carbamate] was 0.38 µM; that for `O=C(Nc1ccc(F)c(Cl)c1)c1ccc(F)c2c1CC[C@@H]2Nc1ncccn1` [Compound 45, (S)—N-(3-chloro-4-fluorophenyl)-7-fluoro-1-(pyrimidin-2-ylamino)-2,3-dihydro-1H-indene-4-carboxamide] was 0.25 µM.
On to `COC(=O)N[C@@H]1c2cccc(C(=O)Nc3ccc(F)c(Cl)c3)c2C[C@H]1O` [Compound 46, O-Methyl, N-((1R,2R)-4-((3-chloro-4-fluorophenyl)carbamoyl)-2-hydroxy-2,3-dihydro-1H-inden-1-yl) carbamate], for which the EC50 under setting [3] worked out at 0.7 µM.
As to `CNC(=O)N[C@@H]1c2cccc(C(=O)Nc3ccc(F)c(Cl)c3)c2C[C@H]1O` [Compound 47, (1R,2R)—N-(3-Chloro-4-fluorophenyl)-2-hydroxy-1-(3-methylureido)-2,3-dihydro-1H-indene-4-carboxamide], the EC50 under setting [3] is 11 µM.
Same read-out and setting: the value for `CN(C)c1cccc(COC(=O)N[C@H]2CCc3c(C(=O)Nc4ccc(F)c(Cl)c4)ccc(F)c32)n1` [Compound 48, O-(6-(Dimethylamino)pyridin-2-yl)methyl, N—(S)-(4-((3-chloro-4-fluorophenyl)carbamoyl)-7-fluoro-2,3-dihydro-1H-inden-1-yl) carbamate] was 0.16 µM.
Same read-out and setting: the value for `COc1cnc(N[C@H]2CCc3c(C(=O)Nc4ccc(F)c(Cl)c4)ccc(F)c32)nc1` [Compound 49, (S)—N-(3-Chloro-4-fluorophenyl)-7-fluoro-1-((5-methoxypyrimidin-2-yl)amino)-2,3-dihydro-1H-indene-4-carboxamide] was 0.17 µM; that for `O=C(Nc1ccc(F)c(Cl)c1)c1ccc(F)c2c1CC[C@@H]2Nc1nccc(-c2ccccn2)n1` [Compound 50, (S)—N-(3-Chloro-4-fluorophenyl)-7-fluoro-1-((4-(pyridin-2-yl)pyrimidin-2-yl)amino)-2,3-dihydro-1H-indene-4-carboxamide] was 1 µM.
`O=C(N[C@@H]1c2cccc(C(=O)Nc3ccc(F)c(Cl)c3)c2C[C@H]1O)OCc1ccccn1` [Compound 51, O-Pyridin-2-ylmethyl, N-((1R,2R)-4-((3-chloro-4-fluorophenyl)carbamoyl)-2-hydroxy-2,3-dihydro-1H-inden-1-yl) carbamate]: the pEC50 under setting [2] was 6.06.
With `COC(=O)NC1c2cccc(C(=O)Nc3ccc(F)c(F)c3)c2CC1O` (stereo not drawn) [Compound 52, O-methyl, N-(4-((3,4-difluorophenyl)carbamoyl)-2-hydroxy-2,3-dihydro-1H-inden-1-yl) carbamate], the pEC50 under setting [1] was 4.72.
For `CNC(=O)NC1c2cccc(C(=O)Nc3ccc(F)c(F)c3)c2CC1O` (stereo not drawn) [Compound 53, N-(3,4-difluorophenyl)-2-hydroxy-1-(3-methylureido)-2,3-dihydro-1H-indene-4-carboxamide], the pEC50 under setting [2] was under 4.60.
As to `CC(C)(C)OC(=O)N1CC(F)(F)CC1COC(=O)N[C@H]1CCc2c(C(=O)Nc3ccc(F)c(Cl)c3)ccc(F)c21` (stereo partly drawn) [Compound 54, tert-Butyl 2-(((((S)-4-((3-chloro-4-fluorophenyl)carbamoyl)-7-fluoro-2,3-dihydro-1H-inden-1-yl)carbamoyl)oxy)methyl)-4,4-difluoropyrrolidine-1-carboxylate], the EC50 under setting [3] is 0.99 µM.
On to `COC(=O)NC1CSc2c(C(=O)Nc3ccc(F)c(F)c3)ccc(F)c21` (stereo not drawn) [Compound 55, O-Methyl, N-(7-((3,4-difluorophenyl)carbamoyl)-4-fluoro-2,3-dihydrobenzo[b]thiophen-3-yl) carbamate], for which the negative-log EC50 (pEC50) (read-out: DE-19 bDNA EC50; HepDE19 cells, inhibition of rcDNA formation, 7 day incubation, top concentration 25 μM) is 5.92.
